Test system: Htr1d expression
Assay: Htr1d expression in founder strains of CC/DO mice after repeated exposure to cocaine or sham (saline)
Type: in vivo, mouse
Conditions: CAST/EiJ males and 129S1/SvlmJ males; repeated exposure over days
Description: Identification of a target for addiction treatment was undertaken using Diversity Outbred (DO) stock of mice and the eight founding inbred strains used to generate the DO stock, which are a genetically diverse collect of mice used to validate […] trait loci (QTLs) linked to disease susceptibility, drug resistance, or behavioral phenotypes (see, e.g., Saul et al., 2019, Trends in Genetics (PMID: 31133439)). DO mice were developed by random outcross mating of 160 incipient Collaborative Cross recombinant inbred mouse lines, which were created by crossing eight unique and genetically diverse inbred mouse strains. […] Upregulation after cocaine exposure was also observed in PWK/PhJ males.

## COC(=O)[C@H]1[C@@H](OC(=O)c2ccccc2)C[C@@H]2CC[C@H]1N2C [cocaine]
  Htr1d expression differences, cocaine compared to sham: 2 fold

Source: patent publication US12551481B2, “Molecular targets for addiction” (The Jackson Laboratory, priority 2019, dated 2026)
